{"source": "patent US6458978B1", "about": "“Fluorous phosphines and process for their preparation” (Atofina Vlissingen B.V., priority 1998, dated 2002)", "key": {"[1]": {"experiment": "Hydrogenation of 1-octene under single phase conditions in α,α,α-trifluorotoluene", "details": "[Rh] 4.0 mM, [1-octene] 1.46 M; T = 80° C., p(H2) = 1 bar, α,α,α-trifluorotoluene", "description": "To be able to directly compare the activities of fluorous derivatives H{1,6} and H{1,8} with non-fluorous [P(C6H4-4-SiMe3)3]3RhCl (H{0}) and the conventional Wilkinson catalyst (PPh3)3RhCl, homogeneous hydrogenation of 1-octene were carried out under single phase conditions in the hybrid solvent α,α,α-trifluorotoluene at atmospheric H2 pressures. Highest rates of hydrogen uptake (14.2 mol.L^−1.h^−1) were measured for 1c at relatively high rhodium and olefine concentrations (entry 2, Table 7). Under these conditions a zero-order dependence in [1-octene] was found up to ca 80% conversion resulting in a linear conversion versus time plot. In all other experiments ([Rh]=4.0-8.0 mM, [1-octene]0=1.46 M) rates of hydrogen uptake were lower (<11 mol.L^−1.h^−1) and conversion versus time plots corresponded to a rate law -d[1-octene]/dt=kobs.[1-octene] for >98% conversion allowing to evaluate catalyst activity in terms of the observed first order rate constant kobs. Since for these experiments the rates of dihydrogen uptake were well below the maximum value obtained in entry 2, diffusion limitation of H2 can be excluded. In addition to kobs, turn over frequencies (TOF in mol.mol^−1.h^−1) were derived from the tangent of a 4^thorder polynomal fit to conversion versus time plots at 25% conversion and serve as a measure of catalyst activity independent of any assumed kinetic relationship with substrate.\nCatalytic reactions were carried out under single phase conditions in CF3C6H5 at 80° C. under 1 bar of hydrogen pressure. After >90% conversion (monitored by the H2 uptake) volatiles were distilled off and analyzed by GC. Activities (TOF) were determined for 25% conversion."}, "[2]": {"details": "hydrogenation of 1-heptene in benzene; cited from earlier work"}}, "data": [{"compound": "[Cl-].[Rh].c1ccc(P(c2ccccc2)c2ccccc2)cc1.c1ccc(P(c2ccccc2)c2ccccc2)cc1.c1ccc(P(c2ccccc2)c2ccccc2)cc1", "note": "[(PPh3)3RhCl]", "values": [{"measurement": "TOF(25%), turn over frequency at 25% conversion", "setting": "[1]", "result": 960, "unit": "h⁻¹"}, {"measurement": "TON (mole of olefin/mole of Rh)", "setting": "[1]", "result": 358}, {"measurement": "conversion", "setting": "[1]", "result": 98, "unit": "%"}, {"measurement": "kobs (first order rate constant)", "setting": "[1]", "result": "4.0(1) h^−1"}, {"measurement": "TOF", "setting": "[2]", "result": "150 to 600", "unit": "h⁻¹"}]}]}
